These results are taken from article PMC10412585 (Nature Communications, 2023).

Format in all cases: cell-based, human
One experiment relates to NKG2A-/NKG2C- NK cells. The experiment in a line: NK cell activation assay with peptide-pulsed K562/HLA-E cells, NKG2A-/NKG2C- internal control. Conditions: K562/HLA-E target cells, 300 µM peptide, flow cytometry. Here is the method: We hypothesized that our predicted proteome-derived peptides could affect NK cell activation through interactions with CD94/NKG2A and CD94/NKG2C. To investigate, we performed cell-based activation assays on primary NK cells (Fig. 4A). NK cells were co-incubated with peptide-pulsed HLA-E-expressing K562 cells, as described previously. The parental K562 human myelogenous leukemia cell line is a typical target to measure NK cell cytotoxicity and activation, allowing for assessment of both NKG2A-mediated inhibition and NKG2C-mediated activation. A side-by-side comparison of the HLA-E expression levels of K562/HLA-E and RMA-S/HLA-E cell lines is shown in Supplemental Fig. 11. All peptides which bound and stabilized HLA-E in the cell-based stability experiment (Fig. 3) were analyzed for their effects on NKG2A^+/NKG2C^- or NKG2A^-/NKG2C^+ NK cell activity, as measured by their ability to induce NK cell degranulation as well as IFN-γ, TNF and CCL3 production, in comparison to class I MHC-derived positive control peptides […] and […], and negative control peptide […] […]
All analyses of human data were carried out in compliance with the relevant ethical regulations. […] Samples were analyzed by flow cytometry on an LSR Fortessa (BD Biosciences). Inhibition of NKG2A^+ NK cells and activation of NKG2C^+ NK cells was assessed by gating on the respective single-positive populations (Supplemental Fig. 14). […]

Another experiment concerns NKG2A-/NKG2C+ NK cells. Kind of experiment: NK cell activation assay with peptide-pulsed K562/HLA-E cells, NKG2A-/NKG2C+ NK cells. Conditions: K562/HLA-E target cells, 300 µM peptide ([…] µM BFAR263-271), E:T 2:1, 6 h; degranulation (CD107a), IFN-γ, TNF, CCL3; flow cytometry. Here is the method:
(§1) We hypothesized that our predicted proteome-derived peptides could affect NK cell activation through interactions with CD94/NKG2A and CD94/NKG2C. To investigate, we performed cell-based activation assays on primary NK cells (Fig. 4A). NK cells were co-incubated with peptide-pulsed HLA-E-expressing K562 cells, as described previously. The parental K562 human myelogenous leukemia cell line is a typical target to measure NK cell cytotoxicity and activation, allowing for assessment of both NKG2A-mediated inhibition and NKG2C-mediated activation. […] NKG2A^-/NKG2C^- NK cells served as internal control as these should be unaffected by peptide-HLA-E complexes (Supplemental Fig. 12).
(§2) Fig. 4 NK cell stimulation assays. Assessment of effects of peptides on NK cell activity through incubation of NK cells, peptides, and (A) K562/HLA-E or (B) RMA-S/HLA-E target cells. […] Replicates for individual peptides are from different donors, with solid black lines indicating mean values. […] Representative gating for NKG2A^+/NKG2C^- and NKG2A^-/NKG2C^+ NK cells is shown in Supplemental Fig. 14. Source data are provided as a Source Data file.
(§3) All analyses of human data were carried out in compliance with the relevant ethical regulations. Healthy blood donors gave informed consent at DRK Blutspendedienst Nord-Ost, Dresden, Germany, and buffy coats were obtained as approved by Charité ethics committee (EA4/059/17). PBMCs were isolated from human CMV-seropositive buffy coats by density centrifugation over Ficoll Paque Plus (GE Healthcare) and screened for the presence of NKG2C^+ NK cell expansions by flow cytometry to have sufficient frequencies of single-positive cells for parallel assessment of activation and inhibition via HLA-E[47]. Total NK cells from donors with NKG2C^+ expansions (>10% NKG2A^-/NKG2C^+ NK cells) were enriched with CD56 microbeads (Miltenyi Biotec) and cryopreserved in FBS with 10% v/v DMSO. After thawing, NK cells were washed with complete medium, stained with antibodies and Fixable Viability Dye eFluor 780 (Thermo Fisher) for 15 min at 4 °C in PBS, sorted as viable CD56^+ CD3^− cells, and rested in complete media overnight. […] Brefeldin A and Monensin (BD Biosciences) were added after a 1 h culture period. After an additional 5 h, the stimulation was stopped by centrifugation at 4 °C. Cells underwent surface staining, followed by fixation and intracellular staining using Inside Stain Kit (Miltenyi Biotec). Samples were analyzed by flow cytometry on an LSR Fortessa (BD Biosciences). Inhibition of NKG2A^+ NK cells and activation of NKG2C^+ NK cells was assessed by gating on the respective single-positive populations (Supplemental Fig. 14). Antibodies are listed in Supplemental Table 1: anti-human CD56 PE/Dazzle 594 (1:200 dilution), CD3 APC-eFluor 780 (1:50 dilution), anti-human CD159a (NKG2A) Biotin REAfinity (1:50 dilution), anti-human CD159c (NKG2C) PE REAfinity (1:100 dilution), anti-human CD107a (LAMP-1) Alexa Fluor 488 (1:400 dilution), anti-human IFN-γ PE-Vio 770 REAfinity (1:50 dilution), anti-human TNF-α Brilliant Violet 605 (1:50 dilution), anti-human CCL3 (MIP-1α) REAfinity (1:25 dilution).

Another experiment has as its system HLA-E. The experiment in a line: HLA-E surface stabilization assay with RMA-S/HLA-E cells. The note with it: peptide 3-300 µM (Fig. 3: 30 µM) in OptiMEM, 16 h, 37 °C, anti-HLA-E 3D12, flow cytometry, n = 4 replicate experiments. Here is the method: To probe top-predicted proteome-derived peptides (Tables 2 and 3) for HLA-E binding, we assessed their ability to stabilize surface-expressed HLA-E on RMA-S/HLA-E cells, a TAP-deficient mouse cell line engineered to express HLA-E and human β2M (Fig. 3 and Supplemental Fig. 8)[47].
Fig. 3 Peptide stabilization of HLA-E surface expression. Assessment of peptide-HLA-E binding via HLA-E surface stabilization assay with RMA-S/HLA-E cells incubated with 30 μM peptide. HLA-E expression is detected with an anti-HLA-E antibody. Measurements from n = 4 replicate experiments are shown, with solid black lines indicating mean values. […] Source data are provided as a Source Data file.
RMA-S/HLA-E cells were incubated with serial dilutions of peptides (3–300 µM, Genscript) in OptiMEM (ThermoFisher) for 16 h at 37 °C. Cells were washed with PBS, stained for HLA-E (Clone 3D12, Biolegend, 1:200 dilution) for 15 min at room temperature and analyzed by flow cytometry (analysis in FlowJo version 10). Peptide UBAC2_275-279 was ordered as a 5mer peptide (WNRLF) given the similarity with other WN peptides and hypothesis of a truncated peptide binding in the HLA-E groove. […] Measurements from replicate experiments are plotted in Fig. 3 and Supplemental Fig. 8.

Another experiment has as its system NKG2A+/NKG2C- NK cells. Kind of experiment: NK cell activation assay with peptide-pulsed K562/HLA-E cells, NKG2A+/NKG2C- NK cells. The note with it: K562/HLA-E target cells, 300 µM peptide ([…] µM BFAR263-271), E:T 2:1, 6 h; degranulation (CD107a), IFN-γ, TNF, CCL3; flow cytometry. How it is done: as §1, §2, §3

For “SAPLKTRFL [UL120_71-79, AD169, divergent UL120 peptide of CMV strain AD169]”, the “effect on activation of internal NKG2A-/NKG2C- control NK cells” value in the experiment on NKG2A-/NKG2C- NK cells is recorded as “negatively affect activation of all subsets”. Further, the “activating effects on NKG2C+ cells” value in the experiment with NKG2A-/NKG2C+ NK cells is recorded as “negatively affect activation of all subsets”. The “stabilization of HLA-E surface expression” value in the experiment with HLA-E was “weaker but detectable stabilization”. For the same sequence, in the experiment on NKG2A+/NKG2C- NK cells, the “inhibitory effects on NKG2A+ cells” value is recorded as “negatively affect activation of all subsets”.
